# Reference: patent US10611750B2, “Tetrahydroquinoline compositions as bet bromodomain inhibitors” (FORMA Therapeutics, Inc., priority 2013, dated 2020)
# Experiments:
# [1] = system: acute myelocytic leukemia (AML) cell line MV4-11; experiment: Oncology cell growth assay (3-day proliferation, CellTiter-Glo); format: cell-based; details: Homo sapiens, MV4-11, 72 h, MV4-11 cells, 3000 cells/well, compounds listed under IC50 range headings, read-out: MV411 IC50 (gIC50, inhibition of proliferation)
# Method in brief: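 MV4-11 AML cells (RPMI 1640, 10% FBS) plated at 3000 cells/well and exposed 72 h to compound at final 10 to 0.0045 μM (3-fold series). Viability read by CellTiter-Glo luminescence; gIC50 from four-parameter logistic fit between DMSO control and no-cell background.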
# [2] = target: T1, BRD4 Bromodomain 1 (BRD4 BD1) (Homo sapiens, UniProt O60885); experiment: AlphaScreen binding assay, BRD4 BD1; details: His-tagged BRD4 BD1 50 nM, biotinylated H4 (1-21) K5/8/12/16 tetra-acetylated peptide 50 nM, compounds listed under IC50 range headings
# T1 construct: 44-168 and BRD4 BD2
# Method in brief: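 Compound dilution series were mixed with His-tagged BRD4 bromodomain and biotinylated tetra-acetylated H4 (1-21) peptide at pH 7.3 (BD1 and peptide at 50 nM, BD2 and peptide at 100 nM). Donor and acceptor beads were then added, and plates were equilibrated at least 1 h before reading. IC50 values were fitted with a four-parameter logistic model.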
Structure (SMILES),IC50 [1] [nM],IC50 [2] [nM]
"C[C@H]1CCc2c(ccc(C3CC3)c2Oc2ccccc2)N1C(=O)C1CC1 [I-243, (S)-cyclopropyl(6-cyclopropyl-2-methyl-5-phenoxy-3,4-dihydroquinolin-1 (2H)-yl) methanone]",< 500,100 to 1000
"C[C@H]1CCc2c(ccc(-c3cnn4c3NCC4)c2OC2CCC2)N1C(=O)C1CC1 [I-278, ((2S)-5-cyclobutoxy-6-(2,3-dihydro-1H-pyrazolo[1,5-a]imidazol-7-yl)-2-methyl-3,4-dihydroquinolin-1(2H)-yl)(cyclopropyl)methanone]",< 500,100 to 1000
"C[C@H]1CCc2c(ccc(-c3cnn(C4CCCS(=O)(=O)C4)c3)c2Oc2ccc(F)cc2)N1C(=O)C1CC1 (stereo partly drawn) [I-295, 3-{4-[(2S)-1-cyclopropanecarbonyl-5-(4-fluorophenoxy)-2-methyl-1,2,3,4-tetrahydroquinolin-6-yl]-1H-pyrazol-1-yl}-1λ^6-thiane-1,1-dione]",< 500,100 to 1000
"COC(=O)N1c2ccc(-c3cn(C)nn3)c(Oc3ccccc3)c2CC[C@@H]1C [I-232, (S)-methyl 2-methyl-6-(1-methyl-1H-1,2,3-triazol-4-yl)-5-phenoxy-3,4-dihydroquinoline-1(2H)-carboxylate]",< 500,100 to 1000
"C[C@H]1CCc2c(ccc(-c3cnn(C4CCCS(=O)(=O)C4)c3)c2Oc2ccccc2)N1C(=O)C1CC1 (stereo partly drawn) [I-294, 3-{4-[(2S)-1-cyclopropanecarbonyl-2-methyl-5-phenoxy-1,2,3,4-tetrahydroquinolin-6-yl]-1H-pyrazol-1-yl}-1λ^6-thiane-1,1-dione]",< 500,100 to 1000
"C[C@H]1CCc2c(ccc(-c3cnn(C4CCNCC4)c3)c2Oc2ccc(F)cc2F)N1C(=O)C1CC1 [I-264, (S)-cyclopropyl (5-(2,4-difluorophenoxy)-2-methyl-6-(1-(piperidin-4-yl)-1H-pyrazol-4-yl)-3,4-dihydroquinolin-1 (2H)-yl)methanone]",< 500,100 to 1000
"COC(=O)N1c2ccc(-c3csc(C(N)=O)n3)c(OC3CCC3)c2CC[C@@H]1C [I-129, (S)-methyl-6-(2-carbamoylthiazol-4-yl)-5-cyclobutoxy-2-methyl-3,4-dihydroquinoline-1(2H)-carboxylate]",< 500,100 to 1000
"C[C@H]1CCc2c(ccc(-c3cnn(C4CNC4)c3)c2Oc2ccc(F)cc2F)N1C(=O)C1CC1 [I-265, (S)-(6-(1-(azetidin-3-yl)-1H-pyrazol-4-yl)-5-(2,4-difluorophenoxy)-2-methyl-3,4-dihydroquinolin-1(2H)-yl)(cyclopropyl)methanone]",< 500,100 to 1000
"COC(=O)N1c2ccc(-c3csc(C4(OC)CNC4)n3)c(OC3CCC3)c2CC[C@@H]1C [I-350, (S)-methyl 5-cyclobutoxy-6-(2-(3-methoxyazetidin-3-yl)thiazol-4-yl)-2-methyl-3,4-dihydroquinoline-1(2H)-carboxylate]",> 1000,1000 to 10000
"COC(=O)N1c2ccc(-c3csc(C4CNC4)n3)c(OC3CCC3)c2CC[C@@H]1C [I-313, (S)-methyl 6-(2-(azetidin-3-yl)thiazol-4-yl)-5-cyclobutoxy-2-methyl-3,4-dihydroquinoline-1(2H)-carboxylate]",> 1000,100 to 1000
"CC(=O)N1c2c(F)cc(-c3cnn(C4CCNCC4)c3)c(Oc3ccccc3)c2CC[C@@H]1C [I-206, (S)-1-(8-fluoro-2-methyl-5-phenoxy-6-(1-(piperidin-4-yl)-1H-pyrazol-4-yl)-3,4-dihydroquinolin-1 (2H)-yl)ethanone]",< 500,100 to 1000
"COC(=O)N1c2ccc(-c3cnn(C4CCS(=O)(=O)CC4)c3)c(OC3CCC3)c2CC[C@@H]1C [I-341, methyl (2S)-5-cyclobutoxy-6-[1-(1,1-dioxo-1λ^6-thian-4-yl)-1H-pyrazol-4-yl]-2-methyl-1,2,3,4-tetrahydroquinoline-1-carboxylate]",500 to 1000,100 to 1000
"C[C@H]1CCc2c(ccc(-n3cccn3)c2Oc2ccccc2)N1C(=O)C1CC1 [I-325, (S)-cyclopropyl(2-methyl-5-phenoxy-6-(1H-pyrazol-1-yl)-3,4-dihydroquinolin-1(2H)-yl)methanone]",> 1000,≥ 10000
"COC(=O)N1c2ccc(-c3cnn(C4CCNCC4OC)c3)c(OC3CCC3)c2CC[C@@H]1C (stereo partly drawn) [I-290, (2S)-methyl 5-cyclobutoxy-6-(1-(3-methoxypiperidin-4-yl)-1H-pyrazol-4-yl)-2-methyl-3,4-dihydroquinoline-1(2H)-carboxylate]",< 500,100 to 1000
"C[C@H]1CCc2c(ccc(-c3nnc(N)s3)c2Oc2ccccc2)N1C(=O)C1CC1 [I-184, (S)-(6-(5-amino-1,3,4-thiadiazol-2-yl)-2-methyl-5-phenoxy-3,4-dihydroquinolin-1(2H)-yl)(cyclopropyl)methanone]",< 500,100 to 1000
"COc1cccc(Oc2c(-c3cnn(C4CCNCC4)c3)ccc3c2CC[C@H](C)N3C(C)=O)c1 [I-156, (S)-1-(5-(3-methoxyphenoxy)-2-methyl-6-(1-(piperidin-4-yl)-1H-pyrazol-4-yl)-3,4-dihydroquinolin-1(2H)-yl)ethanone]",< 500,100 to 1000
"C[C@H]1CCc2c(ccc(-c3cnn(C4CCNCC4)c3)c2Oc2ccccc2Cl)N1C(=O)C1CC1 [I-165, (S)-(5-(2-chlorophenoxy)-2-methyl-6-(1-(piperidin-4-yl)-1H-pyrazol-4-yl)-3,4-dihydroquinolin-1(2H)-yl)(cyclopropyl)methanone]",< 500,100 to 1000
"C[C@H]1CCc2c(ccc(-c3cnn(C4CCNCC4)c3)c2Oc2cccc(C#N)c2)N1C(=O)C1CC1 [I-202, (S)-3-(1-(cyclopropanecarbonyl)-2-methyl-6-(1-(piperidin-4-yl)-1H-pyrazol-4-yl)-1,2,3,4-tetrahydroquinolin-5-yloxy)benzonitrile]",< 500,100 to 1000
"Cc1ccc(Oc2c(-c3cnn(C4CCNCC4)c3)ccc3c2CC[C@H](C)N3C(=O)C2CC2)c(C)n1 [I-332, (S)-cyclopropyl(5-(2,6-dimethylpyridin-3-yloxy)-2-methyl-6-(1-(piperidin-4-yl)-1H-pyrazol-4-yl)-3,4-dihydroquinolin-1(2H)-yl)methanone]",< 500,100 to 1000
"COC(=O)N1c2c(F)cc(-c3cn(C)nn3)c(OC3CCC3)c2CC[C@@H]1C [I-125, (S)-methyl 5-cyclobutoxy-8-fluoro-2-methyl-6-(1-methyl-1H-1,2,3-triazol-4-yl)-3,4-dihydroquinoline-1(2H)-carboxylate]",> 1000,1000 to 10000
"C[C@H]1CCc2c(ccc(-n3cccn3)c2OC2CCC2)N1C(=O)C1CC1 [I-324, (S)-(5-cyclobutoxy-2-methyl-6-(1H-pyrazol-1-yl)-3,4-dihydroquinolin-1(2H)-yl)(cyclopropyl)methanone]",> 1000,≥ 10000
"CC(=O)N1c2ccc(-c3cnn(C4CCNCC4)c3)c(Oc3cccc(C)n3)c2CC[C@@H]1C [I-334, (S)-1-(2-methyl-5-(6-methylpyridin-2-yloxy)-6-(1-(piperidin-4-yl)-1H-pyrazol-4-yl)-3,4-dihydroquinolin-1 (2H)-yl)ethanone]",< 500,1000 to 10000
"C[C@H]1CCc2c(ccc(-c3cnn(C4CS(=O)(=O)C4)c3)c2Oc2ccccc2)N1C(=O)C1CC1 [I-230, 3-[4-[(2S)-1-cyclopropanecarbonyl-2-methyl-5-phenoxy-1,2,3,4-tetrahydroquinolin-6-yl]-1H-pyrazol-1-yl]-1λ^6-thietane-1,1-dione]",< 500,100 to 1000
"C[C@H]1CCc2c(ccc(-c3c[nH]nn3)c2Oc2ccccc2)N1C(=O)C1CC1 [I-187, (S)-cyclopropyl(2-methyl-5-phenoxy-6-(1H-1,2,3-triazol-4-yl)-3,4-dihydroquinolin-1(2H)-yl)methanone]",< 500,100 to 1000
"CC(=O)N1c2ccc(-c3cnn(C4CCNCC4)c3)c(Oc3cc(F)ccc3F)c2CC[C@@H]1C [I-276, (S)-1-(5-(2,5-difluorophenoxy)-2-methyl-6-(1-(piperidin-4-yl)-1H-pyrazol-4-yl)-3,4-dihydroquinolin-1(2H)-yl)ethanone]",< 500,100 to 1000
"C[C@H]1CCc2c(OC3CCC3)c(-c3cn[nH]c3)cc(F)c2N1C(=O)C1CC1 [I-70, (S)-(5-cyclobutoxy-8-fluoro-2-methyl-6-(1H-pyrazol-4-yl)-3,4-dihydroquinolin-1(2H)-yl)(cyclopropyl)methanone]",500 to 1000,1000 to 10000
"C[C@H]1CCc2c(Oc3ccccc3)c(-c3cnn(C4CCNCC4)c3)cc(F)c2N1C(=O)C1CC1 [I-204, (S)-cyclopropyl(8-fluoro-2-methyl-5-phenoxy-6-(1-(piperidin-4-yl)-1H-pyrazol-4-yl)-3,4-dihydroquinolin-1 (2H)-yl)methanone]",< 500,100 to 1000
"C[C@H]1CCc2c(ccc(-c3cnn(C4CCNCC4)c3)c2Oc2cccc(Cl)n2)N1C(=O)C1CC1 [I-94, (S)-(5-(6-chloropyridin-2-yloxy)-2-methyl-6-(1-(piperidin-4-yl)-1H-pyrazol-4-yl)-3,4-dihydroquinolin-1(2H)-yl)(cyclopropyl)methanone]",< 500,1000 to 10000
"COC(=O)N1c2ccc(-n3cc(N4CCNCC4)cn3)c(Oc3ccccc3)c2CC[C@@H]1C [I-340, (S)-methyl 2-methyl-5-phenoxy-6-(4-(piperazin-1-yl)-1H-pyrazol-1-yl)-3,4-dihydroquinoline-1(2H)-carboxylate]",> 1000,1000 to 10000
